Data as given in US5968910A, “Compositions containing two or three inhibitors of different HIV reverse transcriptases” (priority 1994, dated 1999).

Tested on: HIV-1
Test: Breakthrough of mutant HIV-1 strains in CEM cell cultures, single drugs and double/triple combinations
Assay type: cell-based
Method: The culture medium consisted of RPMI 1640 containing 10% fetal bovine serum, 2 mM L-glutamine, and 0.075% NaHCO3. The multiplicity of the initial infection was ~1000 times the CCID50 (50% cell culture infective dose). Passages were performed every 3 to 4 days by adding 0.5 to 1.0 ml of the infected culture supernatant to 5 ml of a suspension containing 4×10^5 uninfected CEM cells per ml. Syncytium formation was used as a parameter of virus breakthrough in the cell cultures. In the drug combination experiments, the compounds were combined at the same initial concentrations as used for the two lowest concentrations in the single-drug experiments.
Compound IV, BHAP and TSAO-m^3 T were added to HIV-1-infected CEM cell cultures at 0.04, 0.10 and 0.25 ug/ml (Compound IV and BHAP) or 1.0, 2.5 and 5.0 μg/ml (TSAO-m^3 T). In addition, various double- and triple-drug combinations of Compound IV, BHAP and TSAO-m^3 T were performed, combining these inhibitors at their lowest (0.04 μg/ml) or intermediary (0.1 μg/ml) concentration as used in the single-drug experiments.

With `Cc1cn([C@@H]2O[C@H](CO[Si](C)(C)C(C)(C)C)[C@@]3(OS(=O)(=O)C=C3N)[C@H]2O[Si](C)(C)C(C)(C)C)c(=O)n(C)c1=O` [TSAO-m^3 T] as the molecule, how does the “HIV-1-induced syncytium formation in CEM cells” value (single drug 1.0 μg/ml, day 4 post infection) read?
Its value is 0 percentage of control.

What about the “HIV-1-induced syncytium formation in CEM cells” value (single drug 1.0 μg/ml, day 7 post infection) of the same molecule?
Its value is 0 percentage of control.

What about the “HIV-1-induced syncytium formation in CEM cells” value (single drug 1.0 μg/ml, day 11 post infection) of the same molecule?
The value was 0 percentage of control.

And the “HIV-1-induced syncytium formation in CEM cells” value (single drug 1.0 μg/ml, day 14 post infection)?
The value was 12.5 percentage of control.

What about the “HIV-1-induced syncytium formation in CEM cells” value (single drug 1.0 μg/ml, day 18 post infection) of the same molecule?
Its value is 75 percentage of control.

And the “HIV-1-induced syncytium formation in CEM cells” value (single drug 1.0 μg/ml, day 21 post infection)?
Its value is 100 percentage of control.

What about the “HIV-1-induced syncytium formation in CEM cells” value (single drug 1.0 μg/ml, day 25 post infection) of the same molecule?
The value was 100 percentage of control.

And the “HIV-1-induced syncytium formation in CEM cells” value (single drug 1.0 μg/ml, day 28 post infection)?
The value was 100 percentage of control.

And the “HIV-1-induced syncytium formation in CEM cells” value (single drug 1.0 μg/ml, day 32 post infection)?
Its value is 100 percentage of control.

And the “HIV-1-induced syncytium formation in CEM cells” value (single drug 1.0 μg/ml, day 35 post infection)?
The value was 100 percentage of control.

What about the “HIV-1-induced syncytium formation in CEM cells” value (single drug 1.0 μg/ml, day 39 post infection) of the same molecule?
Its value is 100 percentage of control.

And the “HIV-1-induced syncytium formation in CEM cells” value (single drug 1.0 μg/ml, day 42 post infection)?
The value was 100 percentage of control.

What about the “HIV-1-induced syncytium formation in CEM cells” value (single drug 1.0 μg/ml, day 46 post infection) of the same molecule?
Its value is 100 percentage of control.

What about the “HIV-1-induced syncytium formation in CEM cells” value (single drug 1.0 μg/ml, day 49 post infection) of the same molecule?
The value was 100 percentage of control.

And the “HIV-1-induced syncytium formation in CEM cells” value (single drug 1.0 μg/ml, day 53 post infection)?
The value was 100 percentage of control.

What about the “HIV-1-induced syncytium formation in CEM cells” value (single drug 1.0 μg/ml, day 56 post infection) of the same molecule?
The value was 100 percentage of control.

What about the “HIV-1-induced syncytium formation in CEM cells” value (single drug 1.0 μg/ml, day 60 post infection) of the same molecule?
The value was 100 percentage of control.

What about the “HIV-1-induced syncytium formation in CEM cells” value (single drug 1.0 μg/ml, day 64 post infection) of the same molecule?
Its value is 100 percentage of control.

What about the “HIV-1-induced syncytium formation in CEM cells” value (single drug 1.0 μg/ml, day 67 post infection) of the same molecule?
Its value is 100 percentage of control.

What about the “HIV-1-induced syncytium formation in CEM cells” value (single drug 1.0 μg/ml, day 71 post infection) of the same molecule?
Its value is 100 percentage of control.

What about the “HIV-1-induced syncytium formation in CEM cells” value (single drug 1.0 μg/ml, day 74 post infection) of the same molecule?
The value was 100 percentage of control.

And the “HIV-1-induced syncytium formation in CEM cells” value (single drug 1.0 μg/ml, day 77 post infection)?
The value was 100 percentage of control.

What about the “HIV-1-induced syncytium formation in CEM cells” value (single drug 2.5 μg/ml, day 4 post infection) of the same molecule?
Its value is 0 percentage of control.

And the “HIV-1-induced syncytium formation in CEM cells” value (single drug 2.5 μg/ml, day 7 post infection)?
The value was 0 percentage of control.

What about the “HIV-1-induced syncytium formation in CEM cells” value (single drug 2.5 μg/ml, day 11 post infection) of the same molecule?
The value was 0 percentage of control.

What about the “HIV-1-induced syncytium formation in CEM cells” value (single drug 2.5 μg/ml, day 14 post infection) of the same molecule?
The value was 12.5 percentage of control.

And the “HIV-1-induced syncytium formation in CEM cells” value (single drug 2.5 μg/ml, day 18 post infection)?
The value was 75 percentage of control.

And the “HIV-1-induced syncytium formation in CEM cells” value (single drug 2.5 μg/ml, day 21 post infection)?
The value was 100 percentage of control.

What about the “HIV-1-induced syncytium formation in CEM cells” value (single drug 2.5 μg/ml, day 25 post infection) of the same molecule?
Its value is 100 percentage of control.

What about the “HIV-1-induced syncytium formation in CEM cells” value (single drug 2.5 μg/ml, day 28 post infection) of the same molecule?
The value was 100 percentage of control.

What about the “HIV-1-induced syncytium formation in CEM cells” value (single drug 2.5 μg/ml, day 32 post infection) of the same molecule?
Its value is 100 percentage of control.

And the “HIV-1-induced syncytium formation in CEM cells” value (single drug 2.5 μg/ml, day 35 post infection)?
The value was 100 percentage of control.

And the “HIV-1-induced syncytium formation in CEM cells” value (single drug 2.5 μg/ml, day 39 post infection)?
Its value is 100 percentage of control.

And the “HIV-1-induced syncytium formation in CEM cells” value (single drug 2.5 μg/ml, day 42 post infection)?
The value was 100 percentage of control.

And the “HIV-1-induced syncytium formation in CEM cells” value (single drug 2.5 μg/ml, day 46 post infection)?
Its value is 100 percentage of control.

What about the “HIV-1-induced syncytium formation in CEM cells” value (single drug 2.5 μg/ml, day 49 post infection) of the same molecule?
The value was 100 percentage of control.

What about the “HIV-1-induced syncytium formation in CEM cells” value (single drug 2.5 μg/ml, day 53 post infection) of the same molecule?
Its value is 100 percentage of control.

What about the “HIV-1-induced syncytium formation in CEM cells” value (single drug 2.5 μg/ml, day 56 post infection) of the same molecule?
Its value is 100 percentage of control.

What about the “HIV-1-induced syncytium formation in CEM cells” value (single drug 2.5 μg/ml, day 60 post infection) of the same molecule?
The value was 100 percentage of control.

What about the “HIV-1-induced syncytium formation in CEM cells” value (single drug 2.5 μg/ml, day 64 post infection) of the same molecule?
The value was 100 percentage of control.

And the “HIV-1-induced syncytium formation in CEM cells” value (single drug 2.5 μg/ml, day 67 post infection)?
Its value is 100 percentage of control.

What about the “HIV-1-induced syncytium formation in CEM cells” value (single drug 2.5 μg/ml, day 71 post infection) of the same molecule?
The value was 100 percentage of control.

And the “HIV-1-induced syncytium formation in CEM cells” value (single drug 2.5 μg/ml, day 74 post infection)?
Its value is 100 percentage of control.

What about the “HIV-1-induced syncytium formation in CEM cells” value (single drug 2.5 μg/ml, day 77 post infection) of the same molecule?
The value was 100 percentage of control.

What about the “HIV-1-induced syncytium formation in CEM cells” value (single drug 5.0 μg/ml, day 4 post infection) of the same molecule?
Its value is 0 percentage of control.

What about the “HIV-1-induced syncytium formation in CEM cells” value (single drug 5.0 μg/ml, day 7 post infection) of the same molecule?
Its value is 0 percentage of control.

What about the “HIV-1-induced syncytium formation in CEM cells” value (single drug 5.0 μg/ml, day 11 post infection) of the same molecule?
Its value is 0 percentage of control.

What about the “HIV-1-induced syncytium formation in CEM cells” value (single drug 5.0 μg/ml, day 14 post infection) of the same molecule?
Its value is 12.5 percentage of control.

What about the “HIV-1-induced syncytium formation in CEM cells” value (single drug 5.0 μg/ml, day 18 post infection) of the same molecule?
Its value is 75 percentage of control.

What about the “HIV-1-induced syncytium formation in CEM cells” value (single drug 5.0 μg/ml, day 21 post infection) of the same molecule?
The value was 100 percentage of control.

And the “HIV-1-induced syncytium formation in CEM cells” value (single drug 5.0 μg/ml, day 25 post infection)?
The value was 100 percentage of control.

And the “HIV-1-induced syncytium formation in CEM cells” value (single drug 5.0 μg/ml, day 28 post infection)?
The value was 100 percentage of control.

What about the “HIV-1-induced syncytium formation in CEM cells” value (single drug 5.0 μg/ml, day 32 post infection) of the same molecule?
The value was 100 percentage of control.

What about the “HIV-1-induced syncytium formation in CEM cells” value (single drug 5.0 μg/ml, day 35 post infection) of the same molecule?
Its value is 100 percentage of control.

And the “HIV-1-induced syncytium formation in CEM cells” value (single drug 5.0 μg/ml, day 39 post infection)?
Its value is 100 percentage of control.

And the “HIV-1-induced syncytium formation in CEM cells” value (single drug 5.0 μg/ml, day 42 post infection)?
Its value is 100 percentage of control.

What about the “HIV-1-induced syncytium formation in CEM cells” value (single drug 5.0 μg/ml, day 46 post infection) of the same molecule?
Its value is 100 percentage of control.

And the “HIV-1-induced syncytium formation in CEM cells” value (single drug 5.0 μg/ml, day 49 post infection)?
Its value is 100 percentage of control.

And the “HIV-1-induced syncytium formation in CEM cells” value (single drug 5.0 μg/ml, day 53 post infection)?
Its value is 100 percentage of control.

What about the “HIV-1-induced syncytium formation in CEM cells” value (single drug 5.0 μg/ml, day 56 post infection) of the same molecule?
Its value is 100 percentage of control.

What about the “HIV-1-induced syncytium formation in CEM cells” value (single drug 5.0 μg/ml, day 60 post infection) of the same molecule?
Its value is 100 percentage of control.

What about the “HIV-1-induced syncytium formation in CEM cells” value (single drug 5.0 μg/ml, day 64 post infection) of the same molecule?
The value was 100 percentage of control.

What about the “HIV-1-induced syncytium formation in CEM cells” value (single drug 5.0 μg/ml, day 67 post infection) of the same molecule?
The value was 100 percentage of control.

And the “HIV-1-induced syncytium formation in CEM cells” value (single drug 5.0 μg/ml, day 71 post infection)?
Its value is 100 percentage of control.

And the “HIV-1-induced syncytium formation in CEM cells” value (single drug 5.0 μg/ml, day 74 post infection)?
Its value is 100 percentage of control.

And the “HIV-1-induced syncytium formation in CEM cells” value (single drug 5.0 μg/ml, day 77 post infection)?
The value was 100 percentage of control.

What about the “virus breakthrough delayed till day” value (single drug, higher concentrations) of the same molecule?
Its value is 14 days.
